Substitutions are numbered along the chain they refer to.
What was measured:
Format in all cases: cell-based
[1] = molecular target: T1, α-Gal A mutant form Q330P (Homo sapiens, UniProt P06280, Q330P); assay: α-Gal A activity in lysates of transfected HEK-293 cells, Q330P
T1 construct: expressed in transfected cells; host or cells: HEK-293
T1 sequence (P06280 32-429 Q330P): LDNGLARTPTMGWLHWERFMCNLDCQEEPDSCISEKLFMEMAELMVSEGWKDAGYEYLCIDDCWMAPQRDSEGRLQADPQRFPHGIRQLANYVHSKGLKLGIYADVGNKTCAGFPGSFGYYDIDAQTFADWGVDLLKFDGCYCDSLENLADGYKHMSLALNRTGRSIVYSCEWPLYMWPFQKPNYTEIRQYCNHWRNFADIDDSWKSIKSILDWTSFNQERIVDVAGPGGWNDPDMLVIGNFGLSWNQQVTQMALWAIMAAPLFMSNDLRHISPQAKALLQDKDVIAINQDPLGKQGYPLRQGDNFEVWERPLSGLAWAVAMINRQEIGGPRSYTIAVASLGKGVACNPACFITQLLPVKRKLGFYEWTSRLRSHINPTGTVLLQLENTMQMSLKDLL
Protocol: (§1) Baseline and 10 μM migalastat α-Gal A activity: Differences in the α-Gal A activity between lysates incubated in the absence and presence of 10 μM migalastat were determined using a one-tailed, Mann Whitney U test; an increase at 10 μM migalastat with a p<0.05 was considered significant.
(§2) 10 μM migalastat α-Gal A activity (% WT)=(α-Gal A activity in mutant transfected cell lysates incubated with 10 μM migalastat÷α-Gal A activity in wild-type transfected cell lysates without migalastat)*100.
(§3) Absolute increase (% WT)=is the 10 μM migalastat α-Gal A activity (% WT) minus the baseline α-Gal A activity (% WT).
(§4) Relative increase is the 10 μM migalastat α-Gal A activity in mutant transfected cell lysates÷baseline α-Gal A activity in mutant transfected cell lysates incubated without migalastat.

[2] = molecular target: T2, α-Gal A mutant form N408Y (Homo sapiens, UniProt P06280, N408Y); assay: α-Gal A activity in lysates of transfected HEK-293 cells, N408Y
T2 construct: expressed in transfected cells; host or cells: HEK-293
T2 sequence (P06280 32-429 N408Y): T1 sequence (P06280 32-429 Q330P) with P299Q, N377Y
Protocol: as §1, §2, §3, §4

[3] = molecular target: T3, α-Gal A mutant form Y216S (Homo sapiens, UniProt P06280, Y216S); assay: α-Gal A activity in lysates of transfected HEK-293 cells, Y216S
T3 construct: expressed in transfected cells; host or cells: HEK-293
T3 sequence (P06280 32-429 Y216S): T1 sequence (P06280 32-429 Q330P) with Y185S, P299Q
Protocol: as §1, §2, §3, §4

[4] = molecular target: T4, α-Gal A mutant form W204L (Homo sapiens, UniProt P06280, W204L); assay: α-Gal A activity in lysates of transfected HEK-293 cells, W204L
T4 construct: expressed in transfected cells; host or cells: HEK-293
T4 sequence (P06280 32-429 W204L): T1 sequence (P06280 32-429 Q330P) with W173L, P299Q
Protocol: as §1, §2, §3, §4

[5] = molecular target: T5, α-Gal A mutant form Q107R (Homo sapiens, UniProt P06280, Q107R); assay: α-Gal A activity in lysates of transfected HEK-293 cells, Q107R
T5 construct: expressed in transfected cells; host or cells: HEK-293
T5 sequence (P06280 32-429 Q107R): T1 sequence (P06280 32-429 Q330P) with Q76R, P299Q
Protocol: as §1, §2, §3, §4

[6] = 10 μM migalastat minus baseline
[7] = 10 μM migalastat ÷ baseline activity
[8] = HEK-293 lysates, 10 μM migalastat, 5 days, mean ± SEM

OC[C@H]1NC[C@H](O)[C@@H](O)[C@H]1O [migalastat, (2R,3S,4R,5S)-2-(hydroxymethyl) piperdine-3,4,5-triol]
Absolute increase (% WT) [1, 6]: 24.4 % WT | Relative increase [1, 7]: 2.21 | 10 μM migalastat α-Gal A activity [1, 8]: 12375 ± 664 nmol/mg/h | 10 μM migalastat α-Gal A activity (% WT) [1, 8]: 45.8 ± 1.9 % WT | Absolute increase (% WT) [2, 6]: 44.6 % WT | Relative increase [2, 7]: 2.09 | 10 μM migalastat α-Gal A activity [2, 8]: 23273 ± 2965 nmol/mg/h | 10 μM migalastat α-Gal A activity (% WT) [2, 8]: 85.5 ± 7.7 % WT | Absolute increase (% WT) [3, 6]: 32.7 % WT | Relative increase [3, 7]: 17.70 | 10 nM migalastat α-Gal A activity ([3]; HEK-293 lysates, 10 nM migalastat as printed, 5 days, mean ± SEM): 11238 ± 751 nmol/mg/h | 10 μM migalastat α-Gal A activity (% WT) [3, 8]: 34.7 ± 1.8 % WT | Absolute increase (% WT) [4, 6]: 47.4 % WT | Relative increase [4, 7]: 2.02 | 10 μM migalastat α-Gal A activity [4, 8]: 32649 ± 3037 nmol/mg/h | 10 μM migalastat α-Gal A activity (% WT) [4, 8]: 84.3 ± 5.9 % WT | Absolute increase (% WT) [5, 6]: 21.5 % WT | Relative increase [5, 7]: 1.27 | 10 μM migalastat α-Gal A activity [5, 8]: 31193 ± 2248 nmol/mg/h | 10 μM migalastat α-Gal A activity (% WT) [5, 8]: 109.8 ± 8.4 % WT
